In ChEMBL document CHEMBL5107969, “Alzheimer's disease: Updated multi-targets therapeutics are in clinical and in progress” (Eur J Med Chem, 2022):

Columns and labels:
[1] = target: Cholinesterase (Equus caballus, UniProt P81908); experiment: Inhibition of equine serum BChE incubated for 15 mins by Ellman's method; type: cell-free
[2] = target: T1, Amyloid-beta precursor protein (Homo sapiens, UniProt P05067); experiment: Inhibition of self-induced amyloid beta (1 to 42) (unknown origin) aggregation at 25 uM incubated for 24 hrs by Thioflavin T-based fluorometric assay relative to control
[3] = target: T1, Amyloid-beta precursor protein; experiment: Disaggregation of self-induced amyloid beta (1 to 42) (unknown origin) aggregation at 25 uM incubated for 24 hrs by Thioflavin T-based fluorometric assay relative to control
[4] = Drug uptake in CD-1 mouse brain at 10 mg/kg, po via gavage measured after 5 mins by LC-MS/MS analysis; type: ADME, organism-based; conditions: read-out: Ct
[5] = Drug uptake in CD-1 mouse plasma at 10 mg/kg, po via gavage measured after 5 mins by LC-MS/MS analysis; type: ADME, organism-based
[6] = target: T1, Amyloid-beta precursor protein; experiment: Inhibition of human AChE-induced amyloid beta (1 to 40) aggregation (unknown origin)
[7] = Drug concentration in […] mouse brain at 3 mg/kg, po measured after 30 mins; type: ADME, organism-based; conditions: read-out: Ct
[8] = system: HEK293; experiment: Induction of Nrf2/ARE transcriptional activation in human HEK293 cells measured after 24 hrs by Bright-Glo luciferase assay; type: cell-based; conditions: filed as activator
[9] = organism: Homo sapiens; experiment: Selectivity ratio of Ki for sigma1 receptor (unknown origin) to Ki for sigma2 receptor (unknown origin)

T1 sequence (P05067 whole entry): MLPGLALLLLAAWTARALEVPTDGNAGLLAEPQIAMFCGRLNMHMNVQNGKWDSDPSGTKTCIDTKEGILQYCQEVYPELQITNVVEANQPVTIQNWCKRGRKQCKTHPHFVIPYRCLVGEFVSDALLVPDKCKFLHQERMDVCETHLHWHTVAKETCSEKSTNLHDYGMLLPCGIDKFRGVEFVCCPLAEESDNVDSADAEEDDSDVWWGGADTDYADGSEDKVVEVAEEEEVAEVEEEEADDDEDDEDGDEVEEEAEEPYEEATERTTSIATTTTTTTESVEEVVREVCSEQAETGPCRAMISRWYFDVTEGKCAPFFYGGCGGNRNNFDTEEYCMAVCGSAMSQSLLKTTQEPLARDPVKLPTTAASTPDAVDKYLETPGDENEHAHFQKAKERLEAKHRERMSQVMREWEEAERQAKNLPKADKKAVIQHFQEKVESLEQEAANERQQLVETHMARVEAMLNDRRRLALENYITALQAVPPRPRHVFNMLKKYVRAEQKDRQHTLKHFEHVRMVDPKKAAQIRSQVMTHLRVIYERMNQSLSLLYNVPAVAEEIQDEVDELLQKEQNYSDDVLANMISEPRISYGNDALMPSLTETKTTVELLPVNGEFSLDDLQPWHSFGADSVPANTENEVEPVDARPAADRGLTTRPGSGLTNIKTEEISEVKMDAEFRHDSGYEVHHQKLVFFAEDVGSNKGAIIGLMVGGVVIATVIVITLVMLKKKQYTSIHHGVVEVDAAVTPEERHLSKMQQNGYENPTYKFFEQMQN
Chain of Cholinesterase (P81908 whole entry): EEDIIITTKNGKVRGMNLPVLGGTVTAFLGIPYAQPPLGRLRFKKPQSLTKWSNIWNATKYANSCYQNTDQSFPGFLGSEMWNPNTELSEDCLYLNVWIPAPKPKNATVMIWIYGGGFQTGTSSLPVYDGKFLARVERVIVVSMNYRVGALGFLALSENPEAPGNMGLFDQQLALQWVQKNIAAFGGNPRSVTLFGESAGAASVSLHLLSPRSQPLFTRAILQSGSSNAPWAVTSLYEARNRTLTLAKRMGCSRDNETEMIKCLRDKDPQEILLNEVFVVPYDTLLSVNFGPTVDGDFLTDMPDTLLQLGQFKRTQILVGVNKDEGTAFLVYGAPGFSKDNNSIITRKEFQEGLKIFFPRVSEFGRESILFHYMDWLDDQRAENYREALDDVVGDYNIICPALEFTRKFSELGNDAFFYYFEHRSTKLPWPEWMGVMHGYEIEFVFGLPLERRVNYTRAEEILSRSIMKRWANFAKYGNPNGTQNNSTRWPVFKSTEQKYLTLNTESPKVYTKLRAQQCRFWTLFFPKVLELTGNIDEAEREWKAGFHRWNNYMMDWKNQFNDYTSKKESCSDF

CCN(CCCCOc1ccc(/C=C/C(=O)N2CCc3ccccc3C2)cc1OC)Cc1ccccc1
IC50 [1]: 0.0089 µM | inhibition [2]: 53.9% | Activity [3]: 43.8%

CN(C)c1ccc(O)c(CNc2cccc3ccc(CO)nc23)c1
concentration at 5 min [4]: 14.3 ng/mL | concentration at 5 min [5]: 5.91 ng/mL

CCN(CCCCCCNC1=CC(=O)C(NCCCCCCN(CC)Cc2ccccc2OC)=CC1=O)Cc1ccccc1OC [MEMOQUIN]
IC50 [6]: 28.3 µM

NC1=NC(c2ccc(F)cc2)NC(=O)N1 (centres undefined)
concentration at 0.5 h [7]: 620 nM

CCCOc1ccc2[nH]cc(CCNC(=O)CN(CCc3c[nH]c4ccc(OCc5ccccc5)cc34)C(=O)CCCC[C@@H]3CCSS3)c2c1
CD [8]: 28.1 µM

O=c1ccoc2ccc(OCCCN3CCCCCC3)cc12
Ratio Ki [9]: 28
